Results from US10125098B2, “Therapeutic compounds and methods of use thereof” (GENENTECH, INC., priority 2014, dated 2018).
Read-outs that look alike come from different tables or passages of the source.

Key:
[1] = target: T1, human NaV1.7 (Homo sapiens, UniProt Q15858); test: Patch voltage clamp electrophysiology assay (EP), NaV1.7; format: cell-based; conditions: HEK-293 cells stably expressing NaV1.7 with β1 subunit; whole-cell patch clamp, membrane potential −60 mV (inactivated state)
T1 construct: permanently transfected with an expression vector containing the full-length cDNA coding for the desired human sodium channel α-subunit; expressed in transfected cells; host or cells: HEK-293
T1 sequence (Q15858 1-1977 isoform Q15858-3): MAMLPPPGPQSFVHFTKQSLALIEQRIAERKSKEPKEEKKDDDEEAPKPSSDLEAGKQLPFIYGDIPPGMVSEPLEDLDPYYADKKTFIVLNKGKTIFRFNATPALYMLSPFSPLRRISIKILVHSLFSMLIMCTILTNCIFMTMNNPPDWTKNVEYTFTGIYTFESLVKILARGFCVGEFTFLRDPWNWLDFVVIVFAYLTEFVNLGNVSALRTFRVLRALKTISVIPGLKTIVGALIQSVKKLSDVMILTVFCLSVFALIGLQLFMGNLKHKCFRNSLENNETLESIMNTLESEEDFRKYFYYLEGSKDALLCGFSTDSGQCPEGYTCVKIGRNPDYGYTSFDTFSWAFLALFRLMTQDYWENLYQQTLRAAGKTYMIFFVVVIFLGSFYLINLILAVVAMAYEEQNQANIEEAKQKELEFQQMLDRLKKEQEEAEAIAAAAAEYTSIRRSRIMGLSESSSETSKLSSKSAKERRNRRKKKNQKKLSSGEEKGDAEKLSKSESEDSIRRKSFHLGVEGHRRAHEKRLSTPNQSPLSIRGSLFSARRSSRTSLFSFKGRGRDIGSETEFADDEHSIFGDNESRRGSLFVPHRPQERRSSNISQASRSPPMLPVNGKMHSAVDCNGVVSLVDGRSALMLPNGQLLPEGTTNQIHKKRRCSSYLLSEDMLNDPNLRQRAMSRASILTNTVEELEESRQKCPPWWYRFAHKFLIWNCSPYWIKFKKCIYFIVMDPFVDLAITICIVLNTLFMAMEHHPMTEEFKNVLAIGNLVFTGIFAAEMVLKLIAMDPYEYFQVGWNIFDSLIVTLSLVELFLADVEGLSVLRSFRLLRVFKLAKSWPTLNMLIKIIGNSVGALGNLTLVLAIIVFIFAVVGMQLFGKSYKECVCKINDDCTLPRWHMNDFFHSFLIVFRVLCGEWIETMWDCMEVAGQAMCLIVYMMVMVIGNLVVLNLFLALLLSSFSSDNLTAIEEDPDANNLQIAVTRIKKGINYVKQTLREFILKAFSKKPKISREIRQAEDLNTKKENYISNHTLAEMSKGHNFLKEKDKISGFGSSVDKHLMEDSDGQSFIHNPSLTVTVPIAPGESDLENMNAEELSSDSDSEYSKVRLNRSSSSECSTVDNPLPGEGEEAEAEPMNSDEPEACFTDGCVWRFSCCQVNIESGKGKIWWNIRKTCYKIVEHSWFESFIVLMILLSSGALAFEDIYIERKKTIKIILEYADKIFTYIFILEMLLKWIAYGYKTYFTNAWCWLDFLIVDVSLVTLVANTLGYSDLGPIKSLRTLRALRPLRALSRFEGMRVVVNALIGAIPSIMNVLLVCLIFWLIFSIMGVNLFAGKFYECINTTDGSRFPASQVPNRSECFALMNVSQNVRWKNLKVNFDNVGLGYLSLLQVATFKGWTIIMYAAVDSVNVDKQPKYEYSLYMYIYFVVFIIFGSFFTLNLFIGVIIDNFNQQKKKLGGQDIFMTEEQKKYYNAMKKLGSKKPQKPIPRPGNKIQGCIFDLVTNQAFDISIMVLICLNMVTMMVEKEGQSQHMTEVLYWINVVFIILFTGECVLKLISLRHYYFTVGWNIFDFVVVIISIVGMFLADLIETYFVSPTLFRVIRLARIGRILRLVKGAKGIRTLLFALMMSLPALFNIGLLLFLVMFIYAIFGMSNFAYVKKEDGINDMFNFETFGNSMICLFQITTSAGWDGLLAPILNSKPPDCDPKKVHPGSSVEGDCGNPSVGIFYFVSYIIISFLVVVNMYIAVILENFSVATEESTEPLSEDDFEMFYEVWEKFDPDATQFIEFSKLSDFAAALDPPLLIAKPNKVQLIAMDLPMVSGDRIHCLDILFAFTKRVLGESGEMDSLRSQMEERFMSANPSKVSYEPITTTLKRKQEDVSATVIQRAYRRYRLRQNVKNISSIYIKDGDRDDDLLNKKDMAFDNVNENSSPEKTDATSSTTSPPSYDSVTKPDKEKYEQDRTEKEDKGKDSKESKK
T1 sequence (Q07699 19-218 partner): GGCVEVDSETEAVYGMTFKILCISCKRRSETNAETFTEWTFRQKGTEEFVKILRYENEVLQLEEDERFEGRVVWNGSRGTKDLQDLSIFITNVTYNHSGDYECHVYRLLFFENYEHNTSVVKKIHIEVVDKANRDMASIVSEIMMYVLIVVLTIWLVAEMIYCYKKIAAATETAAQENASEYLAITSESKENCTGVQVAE
Outline: (§1)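 HEK-293 cells stably expressing human α-subunit with β1; whole-cell patch clamp (PatchXpress or manual), ambient temperature, pH 7.4 external NaCl, CsF internal. Held at −60 mV (full inactivation), stepped to −150 mV for 20 ms, then test pulse; percent current decrease after compound wash-on taken as block.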

[2] = target: T2, NaV1.5 (Homo sapiens, UniProt Q14524); test: Patch voltage clamp electrophysiology assay (EP), NaV1.5; format: cell-based; conditions: HEK-293 cells stably expressing NaV1.5 with β1 subunit, whole-cell patch clamp, membrane potential −60 mV (inactivated state)
T2 construct: permanently transfected with an expression vector containing the full-length cDNA coding for the desired human sodium channel α-subunit; expressed in transfected cells; host or cells: HEK-293
T2 sequence (Q14524 whole entry): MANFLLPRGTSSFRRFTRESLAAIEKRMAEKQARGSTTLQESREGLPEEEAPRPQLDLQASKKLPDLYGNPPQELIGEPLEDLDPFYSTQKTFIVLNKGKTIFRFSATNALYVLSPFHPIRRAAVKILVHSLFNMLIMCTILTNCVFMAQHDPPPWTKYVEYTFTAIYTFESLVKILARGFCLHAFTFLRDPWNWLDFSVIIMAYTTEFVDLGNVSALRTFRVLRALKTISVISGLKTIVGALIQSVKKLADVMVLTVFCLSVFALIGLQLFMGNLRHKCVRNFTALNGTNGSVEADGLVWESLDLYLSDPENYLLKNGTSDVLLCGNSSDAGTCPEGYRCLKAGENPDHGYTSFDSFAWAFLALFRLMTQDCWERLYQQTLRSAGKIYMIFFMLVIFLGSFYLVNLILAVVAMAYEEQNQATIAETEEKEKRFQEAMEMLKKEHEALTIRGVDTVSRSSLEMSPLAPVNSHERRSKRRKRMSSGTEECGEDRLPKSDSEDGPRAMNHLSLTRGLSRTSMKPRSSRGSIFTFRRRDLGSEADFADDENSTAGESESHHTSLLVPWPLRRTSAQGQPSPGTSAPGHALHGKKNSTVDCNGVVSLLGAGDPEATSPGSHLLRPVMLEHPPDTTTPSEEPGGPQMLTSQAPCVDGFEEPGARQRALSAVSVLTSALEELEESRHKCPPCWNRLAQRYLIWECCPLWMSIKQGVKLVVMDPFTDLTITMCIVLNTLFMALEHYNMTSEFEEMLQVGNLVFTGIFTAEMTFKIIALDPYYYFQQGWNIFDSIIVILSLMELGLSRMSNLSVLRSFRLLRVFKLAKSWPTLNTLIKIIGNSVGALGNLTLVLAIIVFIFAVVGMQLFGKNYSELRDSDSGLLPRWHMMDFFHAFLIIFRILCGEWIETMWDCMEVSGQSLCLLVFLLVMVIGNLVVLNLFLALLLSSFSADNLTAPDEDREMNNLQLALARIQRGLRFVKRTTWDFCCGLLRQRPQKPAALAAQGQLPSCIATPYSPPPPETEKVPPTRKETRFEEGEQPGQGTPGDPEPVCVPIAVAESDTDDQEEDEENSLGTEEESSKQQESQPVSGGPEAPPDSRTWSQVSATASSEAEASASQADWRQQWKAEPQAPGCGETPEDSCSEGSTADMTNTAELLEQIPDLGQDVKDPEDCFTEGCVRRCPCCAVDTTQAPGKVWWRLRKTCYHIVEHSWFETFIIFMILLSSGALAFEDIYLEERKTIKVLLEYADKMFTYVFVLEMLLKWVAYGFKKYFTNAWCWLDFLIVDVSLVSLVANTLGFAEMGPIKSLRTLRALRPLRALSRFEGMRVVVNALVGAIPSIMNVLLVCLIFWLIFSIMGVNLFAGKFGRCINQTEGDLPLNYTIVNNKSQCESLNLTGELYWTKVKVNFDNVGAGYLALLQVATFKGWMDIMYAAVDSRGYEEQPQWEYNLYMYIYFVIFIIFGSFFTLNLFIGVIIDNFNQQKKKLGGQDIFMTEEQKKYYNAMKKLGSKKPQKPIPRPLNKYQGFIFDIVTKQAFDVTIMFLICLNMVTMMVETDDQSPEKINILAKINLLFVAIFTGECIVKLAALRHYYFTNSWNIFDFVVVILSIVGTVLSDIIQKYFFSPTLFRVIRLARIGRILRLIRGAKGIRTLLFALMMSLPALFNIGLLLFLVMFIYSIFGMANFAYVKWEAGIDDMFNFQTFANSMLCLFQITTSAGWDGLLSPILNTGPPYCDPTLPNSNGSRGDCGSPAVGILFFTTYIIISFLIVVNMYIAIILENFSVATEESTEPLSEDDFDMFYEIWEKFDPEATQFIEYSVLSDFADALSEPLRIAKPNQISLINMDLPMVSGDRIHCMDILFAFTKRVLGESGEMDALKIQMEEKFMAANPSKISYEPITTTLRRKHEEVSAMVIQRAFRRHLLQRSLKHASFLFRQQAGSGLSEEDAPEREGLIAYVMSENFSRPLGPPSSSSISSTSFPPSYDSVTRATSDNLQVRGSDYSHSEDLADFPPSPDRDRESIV
Outline: as §1

[3] = target: T3, hNav1.7 (Homo sapiens, UniProt Q15858); test: Tritiated compound binding (LBA) to membranes from cells expressing hNav1.7 and the β1 subunit, competitive binding; conditions: competitive binding vs 100 pM [3H]compound, 18 h, room temperature, membranes with hNav1.7 and β1 subunit
T3 construct: expressed in transfected cells
T3 sequence (Q15858 1-1977 isoform Q15858-3): as the sequence (Q15858 1-1977 isoform Q15858-3) above
T3 sequence (Q07699 19-218 partner): as the sequence (Q07699 19-218 partner) above
Outline: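 Membranes from cells expressing hNav1.7 with β1 were incubated 18 h at room temperature with 100 pM tritiated formula (I) compound and increasing test compound, in 100 mM NaCl, 20 mM Tris HCl pH 7.4, 0.01% BSA.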

[4] = human, HEK-293 cells stably expressing human NaV1.5 with β1 subunit, pH 7.4

Row | SMILES | IC50 [1] [µM] | IC50 [3] [µM] | IC50 ([2]; read-out: Nav1.5) [µM] | IC50 [2, 4] [µM]
1 | CC[C@H]1CCN(C(=O)c2cc(C3CC3)c(OCC34CC5CC(CC(C5)C3)C4)cc2F)[C@@H]1C(=O)O [Example 168a, (2S,3S)-1-[4-(1-adamantylmethoxy)-5-cyclopropyl-2-fluoro-benzoyl]-3-ethyl-pyrrolidine-2-carboxylic acid] | 3.3 | 0.61 | 6.8 | –
2 | C[C@H]1CCN(C(=O)c2cc(C3CC3)c(OCC3CCN([C@@H](c4cc(Cl)cc(Cl)c4)C(F)(F)F)CC3)cc2F)[C@@H]1C(=O)O (single isomer, unassigned) [Example 121b] | 0.88 | 0.018 | 17 | –
3 | C[C@H](NC(=O)c1cc(C2CC2)c(OCC23CC4CC(CC(C4)C2)C3)cc1F)C(=O)O [Example 11, (S)-2-(4-(adamantan-1-ylmethoxy)-5-cyclopropyl-2-fluorobenzamido)propanoic acid] | 0.0361 | 0.2 | 2.19 | –
4 | C[C@H](c1cc(Cl)cc(Cl)c1)N1CCC(C)(COc2cc(F)c(C(=O)N3C[C@H](F)C[C@H]3C(=O)O)cc2C2CC2)CC1 (single isomer, unassigned) [Example 132b] | 0.43 | 0.024 | – | ≥ 30
5 | CC(C)COc1ncc(Oc2cc(F)c(C(=O)N[C@H](C(=O)O)C(C)C)cc2Cl)cc1Cl [Example 185, (S)-2-(5-chloro-4-((5-chloro-6-isobutoxypyridin-3-yl)oxy)-2-fluorobenzamido)-3-methylbutanoic acid] | 9.6 | 0.1 | 17 | –
6 | O=C(O)[C@@H]1COC(=O)N1C(=O)c1cc(C2CC2)c(OCC23CC4CC(CC(C4)C2)C3)cc1F [Example 133, (S)-3-(4-(adamantan-1-ylmethoxy)-5-cyclopropyl-2-fluorobenzoyl)-2-oxooxazolidine-4-carboxylic acid] | 18 | 1.4 | 9.4 | –
7 | O=C(O)[C@@H]1C[C@@H](F)CN1C(=O)c1cc(C2CC2)c(OCC2CCN(Cc3ccc(Cl)c(Cl)c3)CC2)cc1F [Example 175, (2S,4R)-1-(5-cyclopropyl-4-((1-(3,4-dichlorobenzyl)piperidin-4-yl)methoxy)-2-fluorobenzoyl)-4-fluoropyrrolidine-2-carboxylic acid] | 1.2 | 0.11 | – | ≥ 30
8 | C[C@H]1OCN(C(=O)c2cc(C3CC3)c(OCC3CCN([C@@H](C)c4cc(Cl)cc(Cl)c4)CC3)cc2F)[C@@H]1C(=O)O [Example 164, (4S,5R)-3-[5-cyclopropyl-4-[[1-[(1S)-1-(3,5-dichlorophenyl)ethyl]-4-piperidyl]methoxy]-2-fluoro-benzoyl]-5-methyl-oxazolidine-4-carboxylic acid] | 0.062 | 0.025 | 13 | –
9 | O=C(O)[C@@H]1CC(F)(F)CN1C(=O)c1cc(C2CC2)c(OCC23CC4CC(CC(C4)C2)C3)cc1F [Example 145, (2S)-1-[4-(1-adamantylmethoxy)-5-cyclopropyl-2-fluoro-benzoyl]-4,4-difluoro-pyrrolidine-2-carboxylic acid] | 0.64 | 0.035 | 16 | –
10 | C[C@H]1OCN(C(=O)c2cc(C3CC3)c(OCC34CC5CC(CC(C5)C3)C4)cc2F)[C@@H]1C(=O)O [Example 162, (4S,5R)-3-[4-(1-adamantylmethoxy)-5-cyclopropyl-2-fluoro-benzoyl]-5-methyl-oxazolidine-4-carboxylic acid] | 0.094 | 0.0073 | 5.7 | –
11 | CO[C@H]1CCN(C(=O)c2cc(C3CC3)c(OCC34CC5CC(CC(C5)C3)C4)cc2F)[C@@H]1C(=O)O [Example 76, (2S,3 S)-1-(4-(adamantan-1-ylmethoxy)-5-cyclopropyl-2-fluorobenzoyl)-3-methoxypyrrolidine-2-carboxylic acid] | 1 | 0.087 | 17 | –
12 | C[C@H]1CCN(C(=O)c2cc(C3CC3)c(OCC3(C)CN([C@H](c4ccccc4)c4cc(Cl)cc(Cl)c4)C3)cc2F)[C@@H]1C(=O)O (single isomer, unassigned) [Example 115] | 0.3 | 0.0077 | 11 | –

Continued, in another order:

Row | IC50 [1] [µM] | IC50 [3] [µM] | SMILES | IC50 ([2]; read-out: Nav1.5) [µM] | IC50 [2, 4] [µM]
13 | 6.7 | 2.3 | O=C(O)[C@@H]1C[C@H](C(F)(F)F)CN1C(=O)c1cc(C2CC2)c(OCC23CC4CC(CC(C4)C2)C3)cc1F [Example 211, (2S,4S)-1-(4-((adamantan-1-yl)methoxy)-5-cyclopropyl-2-fluorobenzoyl)-4-(trifluoromethyl)pyrrolidine-2-carboxylic acid] | 14 | –
14 | 1.3 | 0.46 | O=C(O)[C@@H]1CCCN1C(=O)c1cc(C2CC2)c(COc2cnc(OCC(F)(F)C(F)F)c(C3CC3)c2)cc1F [Example 184, (S)-1-(5-cyclopropyl-4-(((5-cyclopropyl-6-(2,2,3,3-tetrafluoropropoxy)pyridin-3-yl)oxy)methyl)-2-fluorobenzoyl)pyrrolidine-2-carboxylic acid] | 23 | –
15 | 0.26 | 0.0064 | C[C@@H]1[C@@H](C(=O)O)N(C(=O)c2cc(C3CC3)c(OCC34CC5CC(CC(C5)C3)C4)cc2F)C[C@@H]1F [Example 219, (2S,3R,4R)-1-(4-(adamantan-1-ylmethoxy)-5-cyclopropyl-2-fluorobenzoyl)-4-fluoro-3-methylpyrrolidine-2-carboxylic acid] | 12 | –
16 | 0.22 | 0.032 | O=C(O)[C@@H]1CCCN1C(=O)c1cc(C2CC2)c(COc2cc(Cl)cc(OC(F)(F)F)c2)cc1F [Example 182, (S)-1-(4-((3-chloro-5-(trifluoromethoxy)phenoxy)methyl)-5-cyclopropyl-2-fluorobenzoyl)pyrrolidine-2-carboxylic acid] | 25 | –
17 | 7.3 | 3.3 | CC(C)[C@@H](C(=O)O)N(C)C(=O)c1cc(C2CC2)c(COc2cc(Cl)cc(OC(F)(F)F)c2)cc1F [Example 187, (S)-2-(4-((3-chloro-5-(trifluoromethoxy)phenoxy)methyl)-5-cyclopropyl-2-fluoro-N-methylbenzamido)-3-methylbutanoic acid] | 11 | –
18 | 6.6 | 9.1 | NC(=O)[C@@H]1CCCN1C(=O)c1cc(C2CC2)c(COc2cc(Cl)cc(OC(F)(F)F)c2)cc1F [Example 188, (5)-1-(4-((3-chloro-5-(trifluoromethoxy)phenoxy)methyl)-5-cyclopropyl-2-fluorobenzoyl)pyrrolidine-2-carboxamide] | 16 | –
19 | 0.38 | 0.036 | CO[C@@H]1CN(C(=O)c2cc(C3CC3)c(OCC34CC5CC(CC(C5)C3)C4)cc2F)[C@H](C(=O)O)[C@H]1C [Example 207, (2S,3R,4S)-1-(4-(adamantan-1-ylmethoxy)-5-cyclopropyl-2-fluorobenzoyl)-4-methoxy-3-methylpyrrolidine-2-carboxylic acid] | 16 | –
20 | 2.9 | 0.19 | O=C(O)[C@@H]1CCCN1C(=O)c1cc(C2CC2)c(OCC2CCN(Cc3cc(F)cc(Cl)c3)CC2)cc1F [Example 190, (S)-1-(4-((1-(3-chloro-5-fluorobenzyl)piperidin-4-yl)methoxy)-5-cyclopropyl-2-fluorobenzoyl)pyrrolidine-2-carboxylic acid] | – | ≥ 30
